From ChEMBL document CHEMBL1201862, “PubChem BioAssay data set” (2004)
The source made the active and inactive calls.

How the values were obtained:
cells [1] = experiment: cells
Major prion protein = Major prion protein (Homo sapiens, UniProt P04156); assay type: functional, cell-based
cells [2] = assay type: functional
Kallikrein-7 = Kallikrein-7 (Homo sapiens, UniProt P49862); experiment: Fluorescence Intensity-based biochemical primary high throughput dose response assay to identify activators of kallikrein-7 (K7) zymogen.
[3] = target: NAD-dependent protein deacylase sirtuin-5, mitochondrial (Homo sapiens, UniProt Q9NXA8); experiment: SIRT5 desuccinylase inhibitors, dose response, biochemical, fluorescence imaging, cherry-pick, set 5 (AID 720591);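 note: desuccinylation of succinyl peptide AMC substrate read as fluorescence after trypsin release; potency of inhibitors that lower fluorescence and may act on trypsin instead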
HEK293 = experiment: Fluorescence-based counterscreen for potentiators or agonists of NPY-Y2: cell-based high-throughput dose response assay to identify inhibitors of cyclic nucleotide gated ion channel (CNGC) activity. In this assay, the parental HEK293 cell line transfected with a cyclic-nucleotide gated ion channel (CNGC)-based cAMP sensor is used to measure inhibition of isoproterenol-induced CNGC activity by test compound.; assay type: functional; conditions: Homo sapiens;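 note: stimulus is 1 µM isoproterenol at EC100 plus PDE inhibitor Ro 20-1724 at 25 µM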
[4] = target: T1, Neuropeptide Y receptor type 2 (Homo sapiens, UniProt P49146); experiment: Fluorescence-based cell-based high-throughput dose response assay for agonists of NPY-Y2. [Related pubchem assays: 1703 (Screening assay (CNGC inhibitors).), 1359 (Screening assay (NPY-Y2 potentiators or agonists).), 1304 (Screening assay (NPY-Y1 potentiators or agonists).), 1710 (Screening assay (NPY-Y2 agonists).), 1791 (Summary AID.)]; assay type: functional
T1 sequence (P49146 whole entry): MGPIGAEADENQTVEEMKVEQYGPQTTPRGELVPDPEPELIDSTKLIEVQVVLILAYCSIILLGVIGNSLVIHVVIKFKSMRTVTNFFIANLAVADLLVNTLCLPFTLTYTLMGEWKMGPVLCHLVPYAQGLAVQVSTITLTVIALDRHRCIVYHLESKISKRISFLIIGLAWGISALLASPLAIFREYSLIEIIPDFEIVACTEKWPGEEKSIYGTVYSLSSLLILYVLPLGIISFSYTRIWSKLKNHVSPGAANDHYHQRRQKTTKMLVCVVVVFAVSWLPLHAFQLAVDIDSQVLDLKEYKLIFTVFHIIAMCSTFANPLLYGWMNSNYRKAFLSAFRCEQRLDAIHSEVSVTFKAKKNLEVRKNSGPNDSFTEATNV

[5] = target: T2, Neuropeptide Y receptor type 1 (Homo sapiens, UniProt P25929); experiment: Fluorescence-based counterscreen for agonists of NPY-Y2: cell-based high-throughput dose response assay for agonists of NPY-Y1.; assay type: functional
T2 sequence (P25929 whole entry): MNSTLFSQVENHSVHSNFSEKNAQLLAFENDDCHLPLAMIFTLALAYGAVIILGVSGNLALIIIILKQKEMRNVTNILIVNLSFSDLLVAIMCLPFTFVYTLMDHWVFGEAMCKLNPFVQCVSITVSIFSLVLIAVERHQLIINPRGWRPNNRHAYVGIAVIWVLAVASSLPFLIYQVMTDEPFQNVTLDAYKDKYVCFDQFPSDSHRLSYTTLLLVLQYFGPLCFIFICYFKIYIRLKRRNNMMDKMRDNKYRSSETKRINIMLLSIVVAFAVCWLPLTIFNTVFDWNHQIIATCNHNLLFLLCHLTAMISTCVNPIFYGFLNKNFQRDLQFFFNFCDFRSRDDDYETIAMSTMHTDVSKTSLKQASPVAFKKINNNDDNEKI

[6] = HepG2 cell cytotoxicity, dose response, cytotoxicity control, plate reader, cherry-pick, antagonist series (AID 743416); assay type: functional, cell-based
[7] = cytotoxicity toward NIH3T3 fibroblasts, dose response, counter-screen, cell-based, ATP luminescence, mouse fibroblasts (AID 2010); assay type: functional;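 note: cells exposed to compound for about 90 hours before reading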
[8] = HEK293 cell cytotoxicity, dose response, cytotoxicity control, plate reader, cherry-picked samples (AID 743446); assay type: functional, cell-based
[9] = A549 cell cytotoxicity, dose response, cytotoxicity control, plate reader, cherry-pick, antagonist series (AID 743412); assay type: functional, cell-based
[10] = inhibitors of intracellular T. cruzi replication, confirmation, NIH3T3 host cells, beta-gal luminescence (AID 2044); assay type: functional, cell-based;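 note: intracellular parasites grown in NIH/3T3 mouse fibroblasts as host cells; luminescent beta-galactosidase reporter signal from transgenic T. cruzi replicating inside host cells; inhibitors lower the luminescence signal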
[11] = inhibitors of HIV Env-driven cell fusion, dose response, cherry-pick (AID 652057); assay type: functional, cell-based
[12] = off-target signal loss in HeLa-CEM21 co-culture – HeLa F-luc CTL cells, cherry-picked, counter-screen for HIV-1 Env fusion inhibitor project, dose response (AID 652040); assay type: functional, cell-based;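 note: potency for signal decrease marking cytotoxic or nonspecific inhibition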
[13] = ZM109 Env clade C HIV-1 fusion inhibitors, dose response, HeLa effector, CEM target cells, luciferase, cherry-pick (AID 652058); assay type: functional, cell-based
[14] = inhibitors of clade B AD8 Env fusion, dose response, cell-based, cherry-pick (AID 652062); assay type: functional;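 note: luciferase signal from cell-cell fusion driven by HIV-1 clade B AD8 Env; potency is for inhibitors of fusion seen as a drop in luminescence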

Question: With `CN(C(=O)CSc1cc(C(=O)c2nccn2C)c2ccccc2n1)c1ccccc1` as the molecule, how does the IC50 (cells [1]) read?
Answer: > 138 µM (inactive)

Question: What about the IC50 (Major prion protein) of the same molecule?
Answer: 11.4 µM (inactive)

Question: What does the source list for `COC(=O)C(C)Oc1ccc2cc(-c3ccccc3)c(=O)oc2c1` (configuration not stated)?
Answer: IC50 (cells [2]): 6.14 µM (active); EC50 (Kallikrein-7): 5.16 µM (active)

Question: Which AC50 [3] does the source give for `O=C(O)CCNc1nc(C(F)(F)F)nc2ccccc12` here?
Answer: 1.64 µM (active)

Question: With `Cc1c(C(=O)c2ccccc2C(=O)O)sc2ccccc12` as the molecule, how does the IC50 (cells [1]) read?
Answer: > 138 µM (inactive)

Question: And the IC50 (Major prion protein)?
Answer: 8.21 µM (active)

Question: Which EC50 (HEK293) does the source give for `CCOC(=O)c1ccc(-n2c(=S)sc3c(O)nc(C)nc32)cc1` here?
Answer: > 35.4 µM (not active)

Question: And the EC50 [4]?
Answer: > 35.4 µM (not active)

Question: What about the EC50 [5] of the same molecule?
Answer: > 35.4 µM (not active)

Question: For `CCOC(=O)c1c(C)n(C)c2ccc(OCC(O)CNCCc3ccccc3)cc12` (configuration not stated), which AC50 [6] is on record?
Answer: 21.9 µM (active)

Question: And the EC50 [7]?
Answer: 4.89 µM (active)

Question: And the AC50 [8]?
Answer: > 52 µM (inactive)

Question: What about the AC50 [9] of the same molecule?
Answer: 37.7 µM (active)

Question: What about the EC50 [10] of the same molecule?
Answer: 0.601 µM (active)

Question: For `Cc1oc2c(C)c3oc(=O)c(CCC(=O)NCCCCCC(=O)O)c(C)c3cc2c1C`, which EC50 (Kallikrein-7) is on record?
Answer: > 69.5 µM (inactive)

Question: What does the source list for `COc1cc2oc(=O)cc(-c3ccc(-c4ccc(CO)cc4)cc3)c2c(OC)c1OC`?
Answer: AC50 [11]: 12.1 µM (active); AC50 [12]: 8.61 µM (active); AC50 [13]: 5.08 µM (active); AC50 [14]: 13.2 µM (active)

Question: Which IC50 (cells [1]) does the source give for `Cc1nc(SCCC(=O)O)c2ccccc2n1` here?
Answer: > 138 µM (inactive)

Question: And the IC50 (Major prion protein)?
Answer: 0.915 µM (active)
